Data as given in patent US6855730B2, “3-methylidenyl-2-indolinone modulators of protein kinase” (Sugen, Inc., priority 1998, dated 2005).

What follows are compounds tested against T1, 3T3 cell line genetically engineered to express human EGF-R (Homo sapiens, UniProt P00533) (assay: EGF-induced BrdU incorporation assay). Conditions: read-out: BrdU EGF driven IC50.
T1 construct: expressed in transfected cells; host or cells: 3T3
Format: cell-based
Procedure: The cellular/catalytic assays described herein are performed in an ELISA format. The general procedure is as follows: a compound is introduced to cells expressing the test kinase, either naturally or recombinantly, for a selected period of time after which, if the test kinase is a receptor, a ligand known to activate the receptor is added. The cells are lysed and the lysate is transferred to the wells of an ELISA plate previously coated with a specific antibody recognizing the substrate of the enzymatic phosphorylation reaction. Non-substrate components of the cell lysate are washed away and the amount of phosphorylation on the substrate is detected with an antibody specifically recognizing phosphotyrosine compared with control cells that were not contacted with a test compound. The cellular/biologic assays described herein measure the amount of DNA made in response to activation of a test kinase, which is a general measure of a proliferative response. The general procedure for this assay is as follows: a compound is introduced to cells expressing the test kinase, either naturally or recombinantly, for a selected period of time after which, if the test kinase is a receptor, a ligand known to activate the receptor is added. After incubation at least overnight, a DNA labeling reagent such as Bromodeoxyuridine (BrdU) or 3H-thymidine is added. The amount of labeled DNA is detected with either an anti-BrdU antibody or by measuring radioactivity and is compared to control cells not contacted with a test compound. […]
Protocol • (1) Cells are seeded at 8000 cells/well in 10% CS, 2mM Gin in DMEM, in a 96 well plate. Cells are incubated overnight at 37° C. in 5% CO2. • (2) After 24 hours, the cells are washed with PBS, and then are serum starved in serum free medium (0% CS DMEM with 0.1% BSA) for 24 hours. • (3) On day 3, ligand (EGF, 2 nM, prepared in DMEM with 0.1% BSA) and test compounds are added to the cells simultaneously. The negative control wells receive serum free DMEM with 0.1% BSA only, the positive control cells receive the ligand (EGF) but no test compound. Test compounds are prepared in serum free DMEM with ligand in a 96 well plate, and serially diluted for 7 test concentrations. • (4) After 20 hours of ligand activation, diluted BrdU labeling reagent (1:100 in DMEM, 0.1% BSA) is added and the cells are incubated with BrdU (final concentration=10 μM) for 1.5 hours. • (5) After incubation with labeling reagent, the medium is removed by decanting and tapping the inverted plate on a paper towel. FixDenat solution is added (50 μl/well) and the plates are incubated at room temperature for 45 minutes on a plate shaker. • (6) The FixDenat solution is thoroughly removed by decanting and tapping the inverted plate on a paper towel. Milk is added (5% dehydrated milk in PBS, 200 μl/well) as a blocking solution and the plate is incubated for 30 minutes at room temperature on a plate shaker. • (7) The blocking solution is removed by decanting and the wells are washed once with PBS. Anti-BrdU-POD solution (1:100 dilution in PBS, 1% BSA) is added (100 μ/well) and the plate is incubated for 90 minutes at room temperature on a plate shaker. • (8) The antibody conjugate is thoroughly removed by decanting and rinsing the wells 5 times with PBS, and the plate is dried by inverting and tapping on a paper towel. • (9) TMB substrate solution is added (100 μl/well) and incubated for 20 minutes at room temperature on a plate shaker until color development is sufficient for photometric detection. • (10) The absorbance of the samples are measured at 410 nm (in “dual wavelength” mode with a filter reading at 490 nm, as a reference wavelength) on a Dynatech ELISA plate reader.

| Structure (SMILES) | IC50 [µM] |
| --- | --- |
| COc1ccc(/C=C2/C(=O)Nc3ncccc32)cc1C1CCCC1 [Example 47, 3-(3-Cyclopentyl-4-methoxybenzylidene)-1,3-dihydropyrrolo[2,3-b]pyridin-2-one] | > 50 |
| COc1ccc(/C=C2/C(=O)Nc3ccc(Cl)cc32)cc1-c1cccs1 [Example 59, 5-chloro-3-(4-Methoxy-3-thiophen-2-ylbenzylidene)-1,3-dihydroindol-2-one] | 44.5 |
| COc1ccc(/C=C2/C(=O)Nc3ccc(Cl)cc32)cc1-c1cccnc1 [Example 60] | > 50 |
| COc1cccc(-c2cc(OC)c(OC)cc2/C=C2/C(=O)Nc3ccc(Cl)cc32)c1 [Example 61, 5-Chloro-3-(4,5-3′-Trimethoxybiphenyl-2-ylmethylene)-1,3-dihydroindol-2-one] | > 50 |
| COc1cc(/C=C2/C(=O)Nc3ccccc32)c(-c2ccc3ccccc3c2)cc1OC [Example 62, 3-(4,5-Dimethoxy-2-naphthalen-2-ylbenzylidene)-1,3-dihydroindol-2-one] | > 50 |

These reach a lower IC50. Values come first.

| IC50 [µM] | Structure (SMILES) |
| --- | --- |
| 24.1 | COc1cc(C=C2C(=O)Nc3ccccc32)c(-c2ccccc2OC)cc1OC [Example 49, 3-(4,5,2′-Trimethoxybiphenyl-2-ylmethylene)-1,3-dihydroindol-2-one] |
| 37.9 | CC(=O)Nc1ccc2c(c1)NC(=O)/C2=C/c1ccc(OCCN2CCOCC2)c(-c2ccsc2)c1 [Example 50, N-{3-[4-(2-Morpholin-4-ylethoxy)-3-thiophen-3-ylbenzylidene]-2-oxo-2,3-dihydro-1H-indol-6-yl}-acetamide] |
| 12.3 | CC(C)c1cc(/C=C2/C(=O)Nc3ccc(Br)cc32)cc(C(C)C)c1OCCN1CCOCC1 [Example 57, 5-Bromo-3-[3,5-diisopropyl-4-(2-morpholin-4-ylethoxy)benzylidene]-1,3-dihydroindol-2-one] |
| 27.5 | CCOc1cccc(-c2cc(OC)c(OC)cc2/C=C2/C(=O)Nc3ccccc32)c1 [Example 58, 3-(3′-Ethoxy-4,5-dimethoxybiphenyl-2-ylmethylene)-1,3-dihydroindol-2-one] |
